Measurements as given in PMC7756341, “Liposomal FRET Assay Identifies Potent Drug‐Like Inhibitors of the Ceramide Transport Protein (CERT)” (Chemistry (Weinheim an Der Bergstrasse, Germany), 2020).

Tested on: HeLa cells
Assay: Cellular localization of BODIPY-ceramide by confocal microscopy
Format: cell-based
Conditions: 10 µM inhibitor, 2 h
Method: 5.1 Cellular Localization of BODIPY-Ceramide
HeLa cells were seeded in 8 well chamber slides (ibidi µ-Slide 8 Well) in RPMI 1640 medium supplemented with 10% (v/v) heat‐inactivated FCS, 1 mM sodium pyruvate and 2 mM L-glutamine at 37 °C and 5% (v/v) CO2 in a humidified incubator. The day after, cells were incubated with inhibitors for 2 h at a concentration of 10 µM or left untreated by replacing the medium with fresh medium supplemented with the respective inhibitors. After 2 h of incubation, BODIPY FL C5-ceramide (Thermo Fisher) was added to a final concentration of 0,25 µM and imaging was immediately done using an LSM 780 laser scanning confocal microscope (Carl Zeiss). No additional wash steps were performed. After 1 h of incubation, DNA was counterstained using Hoechst 33342. For quantification of BODIPY-Ceramide trafficking, cells were transfected with pECFP-GalT the day before inhibitor incubation for the expression of an eCFP fusion of the human galactosyltransferase (GalT; amino acids 1-60), which localizes at the Golgi apparatus. After incubation with the respective inhibitors (see above), cells were imaged at 30 min post addition of BODIPY FL C5-ceramide. Mean BODIPY intensities of regions of interest surrounding eCFP-GalT-positive Golgi stacks were measured (40 cells per biological replicate, 4 biological replicates in total) using ImageJ software (Rasband, W.S., ImageJ, U. S. National Institutes of Health, Bethesda, Maryland, USA, https://imagej.nih.gov/ij/, 1997-2018) and divided by the total BODIPY intensity detected in the field of view. Quantification (Fig 10B) is expressed as normalized intensity ratio (GA/total).
Figure S10. A Uptake of BODIPY FL C5-ceramide to HeLa cells assessed by normalized fluorescence intensity B Distribution of BODIPY FL C5-ceramide by normalized fluorescence […]
(1 picture or pasted object on this page, not shown here)
Figure S11. BODIPY-Ceramide trafficking. Confocal images showing distribution of BODIPY FL C5-ceramide (green) and Golgi apparatus costaining (eCFP-GalT; blue) in HeLa cells pretreated with 10 µM of respective inhibitors or left untreated. Figures show representative images (n = 4 biological replicates with 40 cells per biological replicate); scale bars, 10 µm.

Compound	effect on intracellular distribution of BODIPY-Cer
CC1=NN(c2ccc(C)c(C)c2)C(=O)/C1=N\Nc1cccc(-c2cccc(C(=O)O)c2)c1O [17C9, Eltrombopag]	only minor effects
Cc1cc(C2=NOC(c3cc(Cl)cc(Cl)c3)(C(F)(F)F)C2)ccc1C(=O)NCC(=O)NCC(F)(F)F (stereo not shown) [20D5, Fluralaner]	significantly influenced
O=C(NC1CCN(CCCCC2(C(=O)NCC(F)(F)F)c3ccccc3-c3ccccc32)CC1)c1ccccc1-c1ccc(C(F)(F)F)cc1 [8E8, lomitapide]	significantly influenced
CCCC(=O)OCOC(=O)C1=C(C)NC(C)=C(C(=O)OC)C1c1cccc(Cl)c1Cl (stereo not shown) [6B11, Clevidipine butyrate]	only minor effects
